Source: BigSolDB 2.1

Cl.O=C(O)c1cn(-c2ccc(F)cc2)c2cc(N3CCNCC3)c(F)cc2c1=O
solubility (mole fraction)
Conditions | in DMF | in acetonitrile | in ethanol | in ethyl acetate | in isopropanol | in methanol | in n-butanol | in n-hexane
278.15 K | 0.00136 | 0.00011 | 0.00019 | 0.0038 | 0.00047 | 0.00181 | 0.00148 | 0.00029
283.15 K | 0.00148 | 0.00012 | 0.00022 | 0.00422 | 0.00059 | 0.00194 | 0.00162 | 0.00033
288.15 K | 0.00164 | 0.00014 | 0.00025 | 0.00476 | 0.00072 | 0.00211 | 0.00179 | 0.00038
293.15 K | 0.00183 | 0.00017 | 0.00029 | 0.00539 | 0.00083 | 0.00234 | 0.00202 | 0.00044
298.15 K | 0.00205 | 0.0002 | 0.00033 | 0.00627 | 0.00098 | 0.00262 | 0.00224 | 0.00053
303.15 K | 0.00232 | 0.00024 | 0.00037 | 0.00719 | 0.0011 | 0.00294 | 0.0025 | 0.00063
308.15 K | 0.00259 | 0.00028 | 0.00043 | 0.00831 | 0.00123 | 0.0033 | 0.00281 | 0.00075
313.15 K | 0.0029 | 0.00034 | 0.00049 | 0.00961 | 0.00134 | 0.00369 | 0.00312 | 0.00089
318.15 K | 0.00324 | 0.0004 | 0.00056 | 0.0109 | 0.00147 | 0.00411 | 0.00344 | 0.00105
323.15 K | 0.00359 | 0.00047 | 0.00064 | 0.0126 | 0.00161 | 0.00457 | 0.00379 | 0.0012
328.15 K | 0.00397 | 0.00054 | 0.00072 | 0.0144 | 0.00172 | 0.00502 | 0.00419 | 0.00137
333.15 K | 0.0044 | 0.00062 | 0.0008 | 0.0163 | 0.00185 | 0.00549 | 0.00463 | 0.00155
